Each structure is given as a SMILES string. pIC50: −log10 of the molar value.

Chain of human P2X3 receptor (P56373 whole entry): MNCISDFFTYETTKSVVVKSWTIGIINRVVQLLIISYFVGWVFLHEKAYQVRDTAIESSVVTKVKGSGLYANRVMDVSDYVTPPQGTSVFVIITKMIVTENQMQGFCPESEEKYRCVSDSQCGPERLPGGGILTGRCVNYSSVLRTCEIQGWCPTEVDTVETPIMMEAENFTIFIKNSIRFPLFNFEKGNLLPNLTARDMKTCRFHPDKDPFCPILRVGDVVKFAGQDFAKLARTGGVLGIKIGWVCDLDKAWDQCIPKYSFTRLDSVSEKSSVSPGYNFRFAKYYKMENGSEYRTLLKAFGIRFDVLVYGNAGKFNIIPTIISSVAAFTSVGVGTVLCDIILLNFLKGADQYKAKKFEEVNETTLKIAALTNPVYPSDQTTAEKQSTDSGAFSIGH

The experiment addresses human P2X3 receptor (Homo sapiens (Human), UniProt P56373). The experiment is described as follows: Evaluation of human P2X3 receptor inhibitory activity (Test Example 1). It is filed as cell-based. Particulars: C6BU-1 cell transfected with human P2X3 receptor gene, FLIPR 384. In a few lines:
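FLIPR calcium read-out: signal taken as peak fluorescence after ATP addition divided by starting fluorescence, and IC50 calculated from it. Compound added 5 min before 150 nM ATP solution (pre-dispense stock) to Fluo-3-AM-loaded C6BU-1 cells stably transfected with human P2X3; HEPES buffer pH 7.5 with probenecid.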
What is called pIC50 is the negative decadic logarithm of the IC50, by convention in mol/L. Low readings indicate a high IC50, high ones a low IC50. In the case of `CCc1[nH]c2ccc(/N=c3\[nH]c(=O)n(C[C@H](C)C(=O)O)c(=O)n3Cc3ccc(Cl)cc3)cc2c1C` [Compound R-074], the pIC50 was 7.89.

Take `CCc1[nH]c2ccc(/N=c3\[nH]c(=O)n(CC(C)(C)C(=O)O)c(=O)n3Cc3ccc(Cl)cc3)cc2c1C` [Compound R-075]: the pIC50 was 7.89. Under `C[C@@H](Cn1c(=O)[nH]/c(=N\c2ccc(OC3CCC3)c(F)c2)n(Cc2ccc(Cl)cc2)c1=O)C(=O)O` [Compound R-076] stands 7.89. The same measure for `CC(C)(Cn1c(=O)[nH]/c(=N\c2ccc(OC3CCC3)c(F)c2)n(Cc2ccc(Cl)cc2)c1=O)C(=O)O` [Compound R-077]: 7.62; for `C[C@@H](Cn1c(=O)[nH]/c(=N\c2ccc(Oc3ncccn3)cc2)n(Cc2ccc(Cl)cc2)c1=O)C(=O)O` [Compound R-078]: 8.00; for `COC(=O)[C@@H](C)Cn1c(=O)[nH]/c(=N\c2ccc(Oc3cncc(Cl)c3)cc2)n(Cc2ccc(Cl)cc2)c1=O` [Compound R-079]: 7.96. The same measure for `COC(=O)C(C)(C)Cn1c(=O)[nH]/c(=N\c2ccc(Oc3cncc(Cl)c3)cc2)n(Cc2ccc(Cl)cc2)c1=O` [Compound R-080]: 7.89.

For `C[C@@H](Cn1c(=O)[nH]/c(=N\c2ccc(Oc3cncc(Cl)c3)cc2)n(Cc2ccc(Cl)cc2)c1=O)C(=O)O` [Compound R-081], the pIC50 was 8.30.

`CC(C)(Cn1c(=O)[nH]/c(=N\c2ccc(Oc3cncc(Cl)c3)cc2)n(Cc2ccc(Cl)cc2)c1=O)C(=O)O` [Compound R-082] gave a pIC50 of 8.15. Under `O=c1[nH]/c(=N\c2ccc(Oc3ncccc3F)cc2)n(Cc2ccc(Cl)cc2)c(=O)n1CC1(CO)COC1` [Compound R-083] stands 8.15; under `O=c1[nH]/c(=N\c2ccc(Oc3ccc(F)cn3)cc2)n(Cc2ccc(Cl)cc2)c(=O)n1CC1(CO)COC1` [Compound R-084], 8.22; under `COc1ccc(Oc2ccc(/N=c3\[nH]c(=O)n(C[C@H](C)C(=O)O)c(=O)n3Cc3ccc(Cl)cc3)cc2)nn1` [Compound R-085], 8.22.

The molecule `COC(=O)[C@@H](C)Cn1c(=O)[nH]/c(=N\c2ccc(Oc3ccnc(Cl)c3)cc2)n(Cc2ccc(Cl)cc2)c1=O` [Compound R-086] had a pIC50 of 8.15. Molecule `COC(=O)C(C)(C)Cn1c(=O)[nH]/c(=N\c2ccc(Oc3ccnc(Cl)c3)cc2)n(Cc2ccc(Cl)cc2)c1=O` [Compound R-087] showed a negative logarithm of the IC50 (pIC50) of 7.92. The same measure for `C[C@@H](Cn1c(=O)[nH]/c(=N\c2ccc(Oc3ccnc(Cl)c3)cc2)n(Cc2ccc(Cl)cc2)c1=O)C(=O)O` [Compound R-088]: 8.22; for `CC(C)(Cn1c(=O)[nH]/c(=N\c2ccc(Oc3ccnc(Cl)c3)cc2)n(Cc2ccc(Cl)cc2)c1=O)C(=O)O` [Compound R-089]: 8.15; for `COC(=O)[C@@H](C)Cn1c(=O)[nH]/c(=N\c2ccc(O[C@H](C)C(F)(F)F)c(F)c2)n(Cc2ccc(Cl)cc2)c1=O` [Compound R-090]: 7.15.

In turn, `COC(=O)C(C)(C)Cn1c(=O)[nH]/c(=N\c2ccc(O[C@H](C)C(F)(F)F)c(F)c2)n(Cc2ccc(Cl)cc2)c1=O` [Compound R-091] gave a pIC50 of 6.97. The same measure for `CC(C)(Cn1c(=O)[nH]/c(=N\c2ccc(Oc3cc(Cl)ncn3)cc2)n(Cc2ccc(Cl)cc2)c1=O)C(=O)O` [Compound R-092]: 8.00. Under `C[C@@H](Cn1c(=O)[nH]/c(=N\c2ccc(O[C@H](C)C(F)(F)F)c(F)c2)n(Cc2ccc(Cl)cc2)c1=O)C(=O)O` [Compound R-093] stands 7.89; under `C[C@@H](Cn1c(=O)[nH]/c(=N\c2ccc(O[C@H](C)C(F)(F)F)c(O[C@H](C)C(F)(F)F)c2)n(Cc2ccc(Cl)cc2)c1=O)C(=O)O` [Compound R-094], 7.54. The same measure for `C[C@@H](Oc1ccc(/N=c2\[nH]c(=O)n(CC(C)(C)C(=O)O)c(=O)n2Cc2ccc(Cl)cc2)cc1F)C(F)(F)F` [Compound R-095]: 7.35; for `C[C@@H](Oc1ccc(/N=c2\[nH]c(=O)n(CC(C)(C)C(=O)O)c(=O)n2Cc2ccc(Cl)cc2)cc1O[C@H](C)C(F)(F)F)C(F)(F)F` [Compound R-096]: 6.81.

With `COC(=O)[C@@H](C)Cn1c(=O)[nH]/c(=N\c2ccc(O[C@H](C)C(F)(F)F)c(C)c2)n(Cc2ccc(Cl)cc2)c1=O` [Compound R-097], the pIC50 is 6.67. The same measure for `Cc1cc(/N=c2\[nH]c(=O)n(C[C@H](C)C(=O)O)c(=O)n2Cc2ccc(Cl)cc2)ccc1O[C@H](C)C(F)(F)F` [Compound R-098]: 7.10.

Take `COC(=O)[C@@H](C)Cn1c(=O)[nH]/c(=N\c2ccc(Oc3ccnc(C#N)c3)cc2)n(Cc2ccc(Cl)cc2)c1=O` [Compound R-099]: the pIC50 was 8.40.

As for `COC(=O)C(C)(C)Cn1c(=O)[nH]/c(=N\c2ccc(Oc3ccnc(C#N)c3)cc2)n(Cc2ccc(Cl)cc2)c1=O` [Compound R-100], the pIC50 was 8.22. As to `COC(=O)[C@@H](C)Cn1c(=O)[nH]/c(=N\c2ccc(N3CCOCC3)c(C)c2)n(Cc2ccc(Cl)cc2)c1=O` [Compound R-101], the pIC50 is 6.70. The same measure for `COC(=O)C(C)(C)Cn1c(=O)[nH]/c(=N\c2ccc(N3CCOCC3)c(C)c2)n(Cc2ccc(Cl)cc2)c1=O` [Compound R-102]: 7.00; for `COC(=O)C(C)(C)Cn1c(=O)[nH]/c(=N\c2ccc(Oc3ccnc(C(=O)O)c3)cc2)n(Cc2ccc(Cl)cc2)c1=O` [Compound R-105]: 8.15. Under `COC(=O)[C@@H](C)Cn1c(=O)[nH]/c(=N\c2ccc(N3CCOCC3)c(F)c2)n(Cc2ccc(Cl)cc2)c1=O` [Compound R-106] stands 6.42. The same measure for `COC(=O)C(C)(C)Cn1c(=O)[nH]/c(=N\c2ccc(N3CCOCC3)c(F)c2)n(Cc2ccc(Cl)cc2)c1=O` [Compound R-107]: 6.66; for `CC(C)(Cn1c(=O)[nH]/c(=N\c2ccc(Oc3ccnc(C#N)c3)cc2)n(Cc2ccc(Cl)cc2)c1=O)C(=O)O` [Compound R-108]: 8.10; for `COC(=O)[C@@H](C)Cn1c(=O)[nH]/c(=N\c2ccc(Oc3cnccn3)c(C)c2)n(Cc2ccc(Cl)cc2)c1=O` [Compound R-111]: 8.30. `COC(=O)[C@@H](C)Cn1c(=O)[nH]/c(=N\c2ccc(Oc3noc(C)n3)cc2)n(Cc2ccc(Cl)cc2)c1=O` [Compound R-112]: the pIC50 was 7.77. Under `COC(=O)C(C)(C)Cn1c(=O)[nH]/c(=N\c2ccc(Oc3noc(C)n3)cc2)n(Cc2ccc(Cl)cc2)c1=O` [Compound R-113] stands 7.89. The same measure for `Cc1nc(Oc2ccc(/N=c3\[nH]c(=O)n(C[C@H](C)C(=O)O)c(=O)n3Cc3ccc(Cl)cc3)cc2)no1` [Compound R-114]: 7.41.

The molecule `Cc1nc(Oc2ccc(/N=c3\[nH]c(=O)n(CC(C)(C)C(=O)O)c(=O)n3Cc3ccc(Cl)cc3)cc2)no1` [Compound R-115] had a pIC50 of 7.19. Under `Cc1cc(/N=c2\[nH]c(=O)n(C[C@H](C)C(=O)O)c(=O)n2Cc2ccc(Cl)cc2)ccc1Oc1cncc(F)c1` [Compound R-116] stands 8.30; under `C[C@@H](Cn1c(=O)[nH]/c(=N\c2ccc(Oc3cncc(F)c3)c(F)c2)n(Cc2ccc(Cl)cc2)c1=O)C(=O)O` [Compound R-117], 8.22. Under `Cc1cc(/N=c2\[nH]c(=O)n(CC(C)(C)C(=O)O)c(=O)n2Cc2ccc(Cl)cc2)ccc1Oc1cncc(F)c1` [Compound R-118] stands 8.30.

The values are drawn from patent publication US10065941B2, “Aminotriazine derivative and pharmaceutical composition comprising the same” (Shionogi & Co., Ltd., priority 2013, dated 2018).
